The subject of assay [1] is C57BL/6 mice with liver fibrosis induced by carbon tetrachloride. As to the kind of experiment: carbon tetrachloride (CCl4)-induced liver fibrosis animal model. It counts as in vivo, mouse. Particulars: for ALT / AST / D-BIL / T-BIL: blood. On the procedure: 6-week-old male C57BL/6J mice (Joongang laboratory animal, Seoul) were acclimated in a laboratory environment for 1 week with solid feed, and randomly arranged in control groups and experimental groups according to randomized block design. Then, carbon tetrachloride (1 ml/kg) was administered to 6-week-old male C57BL/6 mice (Joongang laboratory animal, Seoul) twice a week for three weeks to induce liver fibrosis, and a GPR119 ligand (10 mg/kg) suspended in 40% PEG400 was orally administered thereto once a day for five days per week. For liver fibrosis models induced by dimethylnitrosamine (DMN), DMN (10 mg/kg) was administered to mice three times a week to induce liver fibrosis. As the control group, a vehicle-treated group was used. After termination of the experiment, the laboratory animals were fasted for 12 hours or more, and anesthetized with Zoletil to obtain blood and the liver, and the liver was washed with 0.1 M phosphate buffered saline (PBS; pH 7.4) and weighed. The blood obtained from the abdominal aorta was centrifuged in an SST tube at 3000×RPM for 20 minutes to isolate the serum.
For the above-mentioned laboratory animals, serum alanine transaminase (ALT), aspartate transaminase (AST), total bilirubin (T-BIL) and direct bilirubin (D-BIL) were analyzed using an automated hematology analyzer, Spectrum [(Abbott Laboratories, Abbott Park, Ill.)].
The liver samples obtained as described above were prepared into sections, and the tissue section was fixed with 10% buffered neutral formalin and embedded in paraffin. Afterward, the resulting section was sliced to a 4-μm thickness, and put on a slide to fix a specimen, stained with sirius red, and observed using an optical microscope.
A predetermined amount of liver tissue was homogenized in a mortar with liquid nitrogen and a lysis buffer, and the resulting tissue solution was transferred into a new tube and then vortexed. The tissue solution was centrifuged at 14,000 rpm and 4° C. for 20 minutes, and the intermediate layer was extracted to quantify a protein by a Bradford method. 30 μg of proteins were analyzed by electrophoresis using an SDS polyacrylamide gel, and the change of protein expression was analyzed by western blot.
To examine improvement of liver fibrosis by the GPR119 ligand, in an animal model having liver fibrosis induced by carbon tetrachloride (CCl4), an effect of the GPR119 ligand on inhibiting liver fibrosis was observed.
First, 1 ml/kg of carbon tetrachloride was intraperitoneally administered twice a week, and also orally administered with the GPR119 ligand (MBX-2982) at doses of 20 and 40 mg/kg, respectively, once a day for 5 days a week. Three weeks later, liver tissue was extracted, subjected to sirius red staining for confirming collagen production and immunohistochemical staining for confirming expression of a HSC activation marker, that is, α-SMA, and then compared with a control group and a carbon tetrachloride only-treated group.

The subject of the next assay is mouse HSCs. As to the kind of experiment: col1A1 mRNA expression in primary cultured mouse HSCs during in vitro culture-induced activation. It counts as cell-based. The settings on record: treated on day 1, 3 and 5, FIG. 2a. How it is done:
HSCs were isolated from a male C57BL/6 mouse, a male GPR119 WT mouse and a GPR119 KO mouse. More specifically, each mouse was anesthetized to perform an abdominal incision, a cannula was inserted into the hepatic portal vein to introduce a gas mixture of 5% CO2 and 95% 02, and then Ca^2+, Mg^2+-free Hank's balanced salt solution was injected into the cannula at 37° C. to remove blood in the liver. Afterward, a 0.1% collagenase type IV (Sigma, U.S.A.) solution was injected. The liver tissue was detached from the body and prepared in a liver cell suspension, and following centrifugation at 1000×g for 10 minutes, a precipitated cell layer was obtained by floating HSCs to isolate through a density gradient method using Nycodenz. The isolated HSCs were cultured in high glucose Dulbecco's Modified Eagle's Medium (DMEM) containing 10% fetal bovine serum, 50 U/ml penicillin and […] streptomycin at 37° C. in 5% CO2.
Total RNA ([…]) extracted from cells using Trizol and a Maxime RT PreMix Kit (iNtRON Biotechnology, Gyeonggi-do, Korea) was used to obtain cDNA. […]
Meanwhile, for real-time RT-qPCR, the synthesized cDNA was assessed in a CFX Connect™ Real-Time PCR Detection System (Bio-Rad Laboratories, CA, USA) instrument using a SYBR green dye (Bio-Rad). […]

Assay [2] concerns AMP-activated protein kinase (AMPK). As to the kind of experiment: AMPK activation (AMPK and ACC phosphorylation) in LX-2. It counts as cell-based, human. Particulars: LX-2, time-dependent treatment; FIG. 4b. On the procedure: A human HSC line (LX-2, Milipore, U.S.A.) was plated in a 6-well plate, and grown to confluency in DMEM supplemented with 1% penicillin-streptomycin (Hyclone, U.S.A.) and 2% fetal bovine serum (Hyclone, U.S.A.) at 37° C. in a 5% CO2 incubator. For a further experiment, the confluent HSC line was incubated in an FBS-free medium, instead of the 2% FBS-added medium.
Sodium dodecylsulfate-polyacrylamide gel electrophoresis (SDS-PAGE) was performed using a gel electrophoresis device (Mighty Small SE 250, Hoefer Scientific Instruments, San Francisco) according to the method established by the inventors. A lysed cell fraction was diluted with a sample dilution buffer [63 mM Tris (pH. 6.8), 10% glycerol, 2% SDS, 0.0013% bromophenol blue, 5% β-mercaptoethanol], and subjected to electrophoresis in an electrode buffer (15 g Tris, 72 g glycerin and 5 g SDS contained in an 1 L solution) using a 8-12% gel. […]

For assay [3], the system named is cAMP/PKA (cyclic AMP/Protein kinase A). As to the kind of experiment: activation of GPR119 signaling pathway cAMP/PKA, with PKA inhibitor H-89. It counts as cell-based. Particulars: FIG. 4a. On the procedure: First, when a PKA inhibitor H-89 was treated, a change in action of the GPR119 ligand was examined.
The mark [4] stands for this setting: 40 mg/kg oral once a day 5 days a week, 3 weeks, FIG. 3a.
Where [5] appears, read: 40 mg/kg, western blot, FIG. 3c.

Experimental findings from patent US9895370B2, “Pharmaceutical composition for preventing or treating of cirrhosis of liver comprising G protein coupled receptor 119 ligand as an active ingredient” (DONGGUK UNIVERSITY INDUSTRY—ACADEMIC COOPERATION FOUNDATION, priority 2015, dated 2018) are described below.

Turning to `CCc1cnc(N2CCC(c3nc(COc4ccc(-n5cnnn5)cc4)cs3)CC2)nc1` [MBX-2982, 4-((4-(1H-tetrazol-1-yl)phenoxy)methyl)-2-(1-(5-ethylpyrimidin-2-yl)piperidin-4-yl)thiazole], in assay [1] (setting [4]), the “collagen production (sirius red staining) in liver tissue” value is “significantly reduced” and the “α-SMA expression (immunohistochemical staining) in liver tissue” value is “significantly reduced”. Besides, in assay [1] (40 mg/kg oral, FIG. 3b), the amount of hydroxyproline entry is given as “statistically significantly reduced”. Further, in assay [1] (setting [5]), the “expression of TGFβ protein in liver tissue” value is given as “statistically significantly inhibited”, the “expression of collagen I protein in liver tissue” value is recorded as “statistically significantly inhibited” and the “expression of α-SMA protein in liver tissue” value was “statistically significantly inhibited”. In assay [1] (CCl4 + MBX 20 (20 mg/kg oral)), the ALT worked out at 38.55 U/L, the AST is recorded as 94.06 U/L, the D-BIL was found to be 0.11 mg/dL and the T-BIL came out at 0.20 mg/dL. In addition, in assay [1] (CCl4 + MBX 40 (40 mg/kg oral)), the ALT is on record as 32.06 U/L, the AST turned out to be 68.11 U/L, the D-BIL was determined as 0.12 mg/dL and the T-BIL came to 0.23 mg/dL. In addition, the “mRNA expression of collagen col1A1” value with mouse HSCs is recorded as “considerably inhibited”. The “AMPK activation (AMPK and ACC phosphorylation)” value in assay [2] was “highly activated”. Moreover, the cAMP activation entry in assay [3] was “observed”. Besides, in assay [3] (with H-89), the “action on inhibiting collagen I and TGFβ expression when PKA inhibitor H-89 was treated” value is “not offset”.
